The source of these data is patent US20210181109A1 (FUJIFILM Corporation, priority 2018, published 2021).

Data set [1] can be described thus: Average score of NAC and NAL depletion and prediction of skin allergenicity, UV method. Summed up: (§1)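 Score is the mean of NAC and NAL depletion percentages, rounded at the second decimal place. Test substances classed as allergenic (S) or non-allergenic (NS) from depletion of NAC, NAL, or their average score.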
For data set [2] the following is noted: cited from earlier work.
Data set [3] can be described thus: NAC depletion percent, HPLC-fluorescence detection. The essentials: (§2)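 NAC at 5 μmol/L in pH 8.0 phosphate buffer reacted with test substance (1 mmol/L stock in water, acetonitrile, acetone or 5% DMSO/acetonitrile) 24 h at 25 °C in the dark, n=3. Stopped with TFA (0.5% final); unreacted NAC quantified by HPLC, depletion percent calculated against blank without test substance.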

A short description of data set [4]: NAL depletion percent, HPLC-fluorescence detection. Summed up: (§3)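 NAL (5 μmol/L, pH 10.2 phosphate buffer) reacted with test substance (1 mmol/L stock in water, acetonitrile, acetone or 5% DMSO/acetonitrile) for 24 h at 25 °C in the dark; stopped with TFA to 0.5%. Unreacted NAL quantified by HPLC (UV or fluorescence), n=3; depletion % relative to substance-free blank.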

Data set [5] can be described thus: NAC depletion percent, HPLC-UV detection (281 nm). The note with it: Reference (UV method). Summed up: as §2
Data set [6] is described as follows: NAL depletion percent, HPLC-UV detection (281 nm). The note with it: Reference (UV method). The essentials: as §3
Data set [7] is described as follows: Average score of NAC and NAL depletion and prediction of skin allergenicity, fluorescence method. Summed up: as §1
Setting [8] is: single substance, Reference (UV method), criterion average score […].
The mark [9] stands for this setting: single substance, test substance solution 1 mmol/L, Reference (UV method).
The mark [10] stands for this setting: known values, LLNA-test-based classification, − for non-allergenic substances.
[11] abbreviates: single substance, test substance solution 1 mmol/L, fluorescence method.
Where [12] appears, read: single substance, test substance solution 1 mmol/L.
Where [13] appears, read: single substance, fluorescence method, criterion average score […].
Where [14] appears, read: Fluorescence method, non-allergenic substance.

Counter-ions that a name gives are not always drawn. Like-named read-outs stand apart in the source and are kept apart here.

`CC(C=O)Cc1ccc(C(C)C)cc1` (stereo not shown) [Cyclamen aldehyde]: the Prediction result in data set [1] (setting [8]) was “NS (NS represents as being a non-allergenic substance)”; in data set [7] (setting [13]), “S (S represents as being an allergenic substance)”. For the same molecule, the values for the Average score in data set [1] (setting [9]) and in data set [7] (setting [11]) were 2.4% and 6.1%, respectively. Besides, the “EC3 (%)” value in data set [2] (setting [10]) is listed as 22%. The entries for the “NAC depletion (%)” value in data set [3] (setting [11]) and in data set [5] (setting [12]) were 12.2% and 3.1%, respectively. Also, the entries for the “NAL depletion (%)” value in data set [4] (setting [11]) and in data set [6] (setting [12]) were 0.0% and 1.7%, respectively.

Consider `CCOC(=O)/C=C\C(=O)OCC` [Diethyl maleate], for which the Prediction result in data set [1] (setting [8]) and in data set [7] (setting [13]) was “S (S represents as being an allergenic substance)” throughout. The Average score was 19.8% in data set [1] (setting [9]) and 18.0% in data set [7] (setting [11]). In data set [2] (setting [10]), the “EC3 (%)” value was 5.8%. Also, the “NAC depletion (%)” value was 31.2% in data set [3] (setting [11]) and 31.8% in data set [5] (setting [12]). The “NAL depletion (%)” value in data set [4] (setting [11]) came out at 4.7%; in data set [6] (setting [12]), 7.7%.

As to `O=c1c(-c2ccccc2)c1-c1ccccc1` [Diphenylcyclopropenone], the Prediction result in data set [1] (setting [8]) and in data set [7] (setting [13]) was “S (S represents as being an allergenic substance)” each time. Besides, the values for the Average score in data set [1] (setting [9]) and in data set [7] (setting [11]) were 17.5% and 16.0%, respectively. Further, the “EC3 (%)” value in data set [2] (setting [10]) is 0.0003%. Further, the figures for the “NAC depletion (%)” value in data set [3] (setting [11]) and in data set [5] (setting [12]) were 29.7% and 28.7%, respectively. Besides, the “NAL depletion (%)” value in data set [4] (setting [11]) came out at 2.4%; in data set [6] (setting [12]), 6.3%.

For the molecule `C=CC(=O)OCC` [Ethyl acrylate], the Prediction result in data set [1] (setting [8]) and in data set [7] (setting [13]) was “S (S represents as being an allergenic substance)” in each case. Moreover, the Average score in data set [1] (setting [9]) is recorded as 50.8%; in data set [7] (setting [11]), 49.6%. For the same molecule, the “EC3 (%)” value in data set [2] (in vivo) is reported as 28%. In addition, the “NAC depletion (%)” value in data set [3] (setting [11]) came out at 88.7%; in data set [5] (setting [12]), 87.8%. Besides, the figures for the “NAL depletion (%)” value in data set [4] (setting [11]) and in data set [6] (setting [12]) were 10.6% and 13.7%, respectively.

For `C=C(C)C(=O)OCCOC(=O)C(=C)C` [Ethylene glycol dimethacrylate], the Prediction result in data set [1] (setting [8]) and in data set [7] (setting [13]) was “NS (NS represents as being a non-allergenic substance)” throughout. For the same molecule, the Average score in data set [1] (setting [9]) is on record as 4.3%; in data set [7] (setting [11]), 4.4%. Further, the “EC3 (%)” value in data set [2] (setting [10]) is 28%. Also, the results for the “NAC depletion (%)” value in data set [3] (setting [11]) and in data set [5] (setting [12]) were 7.3% and 5.9%, respectively. Besides, the “NAL depletion (%)” value in data set [4] (setting [11]) was determined as 1.5%; in data set [6] (setting [12]) it was 2.6%.

Consider `O=CCCCC=O` [Glutaraldehyde], for which the Prediction result in data set [1] (setting [8]) and in data set [7] (setting [13]) was “S (S represents as being an allergenic substance)” throughout. The Average score in data set [1] (setting [9]) is on record as 26.9%; in data set [7] (setting [11]), 23.7%. Besides, the “EC3 (%)” value in data set [2] (setting [10]) was 0.1%. Moreover, the “NAC depletion (%)” value in data set [3] (setting [11]) was determined as 0.0%; in data set [5] (setting [12]) it was 0.8%. The “NAL depletion (%)” value in data set [4] (setting [11]) amounted to 47.4%; in data set [6] (setting [12]), 53.1%.

With `O=CC=O` [Glyoxal], the Prediction result in data set [1] and in data set [7] was “S (key: S represents as being an allergenic substance; NS represents as being a non-allergenic substance)” each time. Moreover, the Average score is 6.8% in data set [1] (setting [9]) and 12.7% in data set [7] (setting [11]). Also, in data set [2] (in vivo), the “EC3 (%)” value is given as 1.4%. The “NAC depletion (%)” value is 24.9% in data set [3] (setting [11]) and 12.8% in data set [5] (setting [12]). Moreover, the “NAL depletion (%)” value in data set [4] (setting [11]) came to 0.4%; in data set [6] (setting [12]) it was 0.8%.

Turning to `CC(CC=O)CCCC(C)(C)O` (stereo not shown) [Hydroxycitronellal], the Prediction result in data set [1] (setting [8]) and in data set [7] (setting [13]) was “S (S represents as being an allergenic substance)” throughout. For the same molecule, the Average score is reported as 9.5% in data set [1] (setting [9]) and 8.0% in data set [7] (setting [11]). Moreover, in data set [2] (setting [10]), the “EC3 (%)” value was 33%. The “NAC depletion (%)” value in data set [3] (setting [11]) worked out at 16.0%; in data set [5] (setting [12]), 17.5%. Also, the figures for the “NAL depletion (%)” value in data set [4] (setting [11]) and in data set [6] (setting [12]) were 0.0% and 1.5%, respectively.

Consider `CCCCCCCCCCCCOC(=O)c1cc(O)c(O)c(O)c1` [Lauryl gallate], for which the Prediction result in data set [1] (setting [8]) and in data set [7] (setting [13]) was “S (S represents as being an allergenic substance)” throughout. For the same molecule, the Average score in data set [1] (setting [9]) is on record as 59.5%; in data set [7] (setting [11]) it was 57.7%. The “EC3 (%)” value in data set [2] (setting [10]) was 0.3%. Also, the figures for the “NAC depletion (%)” value in data set [3] (setting [11]) and in data set [5] (setting [12]) were 99.5% and 100.0%, respectively. Besides, the “NAL depletion (%)” value in data set [4] (setting [11]) came out at 15.9%; in data set [6] (setting [12]), 19.0%.

On to `CCCCCCC#CC(=O)OC` [Methyl 2-nonynoate], for which the Prediction result in data set [1] (setting [8]) and in data set [7] (setting [13]) was “S (S represents as being an allergenic substance)” each time. Further, the values for the Average score in data set [1] (setting [9]) and in data set [7] (setting [11]) were 8.2% and 7.8%, respectively. The “EC3 (%)” value in data set [2] (setting [10]) is reported as 2.5%. For the same molecule, the “NAC depletion (%)” value worked out at 12.4% in data set [3] (setting [11]) and 15.0% in data set [5] (setting [12]). Also, the “NAL depletion (%)” value was determined as 3.2% in data set [4] (setting [11]) and 1.4% in data set [6] (setting [12]).

For the molecule `CNc1ccc(O)cc1.CNc1ccc(O)cc1.O=S(=O)(O)O` [Metol], the Prediction result in data set [1] (setting [8]) and in data set [7] (setting [13]) was “S (S represents as being an allergenic substance)” in each case. For the same molecule, the Average score in data set [1] (setting [9]) is recorded as 61.4%; in data set [7] (setting [11]), 57.9%. Besides, the “EC3 (%)” value in data set [2] (setting [10]) is on record as 0.8%. Moreover, the “NAC depletion (%)” value in data set [3] (setting [11]) and in data set [5] (setting [12]) was 100.0% each time. The figures for the “NAL depletion (%)” value in data set [4] (setting [11]) and in data set [6] (setting [12]) were 15.9% and 22.8%, respectively.

With `CCCCCCCCC(=O)O` [Nonanoic acid], the Prediction result was “NS (NS represents as being a non-allergenic substance)” in data set [1] (Reference (UV method), skin allergenicity prediction) and “NS (NS represents as being a non-allergenic substance)” in data set [7] (Fluorescence method, skin allergenicity prediction). Further, in data set [2] (setting [10]), the “EC3 (%)” value is 21%. Besides, the “NAC depletion (%)” value in data set [3] (setting [14]) and in data set [5] (non-allergenic substance) was 0.0% throughout. Further, the results for the “NAL depletion (%)” value in data set [4] (setting [14]) and in data set [6] (non-allergenic substance) were 0.0% and 1.3%, respectively.

As to `CCCCCCCCC(=O)Cl` [Nonanoyl chloride], the Prediction result in data set [1] (setting [8]) and in data set [7] (setting [13]) was “S (S represents as being an allergenic substance)” each time. Also, the figures for the Average score in data set [1] (setting [9]) and in data set [7] (setting [11]) were 23.4% and 31.7%, respectively. Moreover, the “EC3 (%)” value in data set [2] (setting [10]) is recorded as 1.8%. Moreover, the “NAC depletion (%)” value in data set [3] (setting [11]) came to 8.9%; in data set [5] (setting [12]) it was 7.4%. The “NAL depletion (%)” value came out at 54.5% in data set [4] (setting [11]) and 39.4% in data set [6] (setting [12]).

For the molecule `CCO/C=C1\N=C(c2ccccc2)OC1=O` [Oxazolone], the Average score in data set [1] was 82.7%; in data set [7], 78.8%. Moreover, the Prediction result in data set [1] and in data set [7] was “S (key: S represents as being an allergenic substance; NS represents as being a non-allergenic substance)” each time. In data set [2] (in vivo), the “EC3 (%)” value is 0.003%. The “NAC depletion (%)” value in data set [3] (setting [11]) worked out at 92.0%; in data set [5] (setting [12]), 85.3%. For the same molecule, the “NAL depletion (%)” value in data set [4] (setting [11]) amounted to 65.5%; in data set [6] (setting [12]), 80.1%.

Regarding `CCCCCCCCCCCCCCCC(=O)Cl` [Palmitoyl chloride], the Prediction result in data set [1] (setting [8]) and in data set [7] (setting [13]) was “S (S represents as being an allergenic substance)” in each case. The Average score was 50.8% in data set [1] (setting [9]) and 54.9% in data set [7] (setting [11]). Moreover, the “EC3 (%)” value in data set [2] (setting [10]) was 8.8%. For the same molecule, the “NAC depletion (%)” value was 11.5% in data set [3] (setting [11]) and 5.8% in data set [5] (setting [12]). Moreover, the “NAL depletion (%)” value in data set [4] (setting [11]) was determined as 98.3%; in data set [6] (setting [12]), 95.9%.

Consider `C=C(C)C1CC=C(C=O)CC1` (stereo not shown) [Perillaldehyde], for which the Prediction result in data set [1] (setting [8]) and in data set [7] (setting [13]) was “S (S represents as being an allergenic substance)” in each case. Also, the Average score was 23.8% in data set [1] (setting [9]) and 24.7% in data set [7] (setting [11]). Besides, the “EC3 (%)” value in data set [2] (setting [10]) is listed as 8.1%. The results for the “NAC depletion (%)” value in data set [3] (setting [11]) and in data set [5] (setting [12]) were 42.4% and 29.1%, respectively. Besides, the “NAL depletion (%)” value in data set [4] (setting [11]) came out at 7.1%; in data set [6] (setting [12]), 18.5%.
